Among the data in patent US8026282B2, “Phenoxyalkylcarboxylic acid derivatives in the treatment of irritable bowel syndrome” (Medicinova, Inc., priority 2004, dated 2011) are IC50 and Ki values, retold here.

Assay [1] addresses T1, 5-LO (Homo sapiens, UniProt P09917).
T1 sequence (P09917 1-674): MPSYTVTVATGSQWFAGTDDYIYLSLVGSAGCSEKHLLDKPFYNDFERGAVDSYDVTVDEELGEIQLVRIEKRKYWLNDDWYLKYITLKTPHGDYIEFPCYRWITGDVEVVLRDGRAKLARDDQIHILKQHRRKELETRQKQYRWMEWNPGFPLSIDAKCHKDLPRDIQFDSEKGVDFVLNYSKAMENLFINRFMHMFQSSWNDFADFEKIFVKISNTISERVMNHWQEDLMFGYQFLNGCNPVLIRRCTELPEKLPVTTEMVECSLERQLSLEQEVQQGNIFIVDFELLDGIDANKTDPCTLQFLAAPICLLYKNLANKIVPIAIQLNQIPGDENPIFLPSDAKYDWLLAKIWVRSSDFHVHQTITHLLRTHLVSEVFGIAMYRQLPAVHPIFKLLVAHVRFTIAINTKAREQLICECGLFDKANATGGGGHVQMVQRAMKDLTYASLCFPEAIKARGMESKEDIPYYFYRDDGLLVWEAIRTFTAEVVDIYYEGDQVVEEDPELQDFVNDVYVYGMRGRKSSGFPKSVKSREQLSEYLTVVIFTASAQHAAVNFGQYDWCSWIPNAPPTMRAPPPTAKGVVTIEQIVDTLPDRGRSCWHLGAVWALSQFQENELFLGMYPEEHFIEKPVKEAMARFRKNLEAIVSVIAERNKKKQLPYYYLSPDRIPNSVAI
In words: Biochemical assay 5-LO. Particulars: Hu.

Assay [2] has as its system PDE1. In words: Biochemical assay PDE1. The settings on record: PDE1, Bov.
The target in assay [3] is PDE2 (Homo sapiens, UniProt O00408). Nature of the assay: Biochemical assay PDE2. The settings on record: PDE2, Hu.
Assay [4] concerns PDE4. In words: Biochemical assay PDE4. Particulars: PDE4, Hu.
Assay [5] has as its target T2, Adrenergic α2B (Homo sapiens, UniProt P18089).
T2 sequence (P18089 1-450): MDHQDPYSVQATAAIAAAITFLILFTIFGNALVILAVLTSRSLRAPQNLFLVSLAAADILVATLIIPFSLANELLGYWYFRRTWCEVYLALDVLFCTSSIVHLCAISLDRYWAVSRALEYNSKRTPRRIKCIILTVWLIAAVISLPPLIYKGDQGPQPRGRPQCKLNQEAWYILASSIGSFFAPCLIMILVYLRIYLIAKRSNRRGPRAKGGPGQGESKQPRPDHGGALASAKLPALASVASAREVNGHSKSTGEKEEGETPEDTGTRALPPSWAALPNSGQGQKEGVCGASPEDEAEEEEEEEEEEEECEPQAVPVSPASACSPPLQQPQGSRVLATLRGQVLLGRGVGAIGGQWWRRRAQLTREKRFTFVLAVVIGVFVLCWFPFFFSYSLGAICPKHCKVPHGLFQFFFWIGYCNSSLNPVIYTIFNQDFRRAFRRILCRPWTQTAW
Nature of the assay: Biochemical assay Adrenergic α2B. The class given is binding. The settings on record: Hu; for Ki: value in parentheses.

The target of assay [6] is Adrenergic β3 (Homo sapiens, UniProt P13945). Nature of the assay: Biochemical assay Adrenergic β3. In kind it is binding. Particulars: Adrenergic β3, Hu; for Ki: value in parentheses.
The target in assay [7] is Adrenergic, NE Transporter (Homo sapiens, UniProt P23975). Nature of the assay: Biochemical assay Adrenergic, NE Transporter. Particulars: Hu; for Ki: value in parentheses. In kind it is binding.
Assay [8] addresses T3, LTD4 (Cavia porcellus, UniProt Q2NNR5).
T3 sequence (Q2NNR5 1-340): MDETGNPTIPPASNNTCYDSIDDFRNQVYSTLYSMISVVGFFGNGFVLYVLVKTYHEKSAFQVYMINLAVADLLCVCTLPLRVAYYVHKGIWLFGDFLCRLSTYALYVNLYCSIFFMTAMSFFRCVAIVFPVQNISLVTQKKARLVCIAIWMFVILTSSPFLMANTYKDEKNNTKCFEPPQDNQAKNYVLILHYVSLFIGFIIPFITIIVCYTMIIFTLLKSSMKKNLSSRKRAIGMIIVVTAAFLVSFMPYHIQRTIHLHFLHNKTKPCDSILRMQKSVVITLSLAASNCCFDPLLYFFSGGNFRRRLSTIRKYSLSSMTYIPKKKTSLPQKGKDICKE
In words: Biochemical assay LTD4. The class given is binding. Particulars: LTD4, Gp; for Ki: value in parentheses.

For assay [9], the target named is Melanocortin MC5 (Homo sapiens, UniProt P33032). In words: Biochemical assay Melanocortin MC5. The class given is binding. The settings on record: Melanocortin MC5, Hu; for Ki: value in parentheses.
Assay [10] deals with Opiate δ (Homo sapiens, UniProt P41143). In words: Biochemical assay Opiate δ. In kind it is binding. The settings on record: Hu; for Ki: value in parentheses.
Assay [11] deals with T4, Thromboxane A2 (Homo sapiens, UniProt P21731).
T4 sequence (P21731 1-343): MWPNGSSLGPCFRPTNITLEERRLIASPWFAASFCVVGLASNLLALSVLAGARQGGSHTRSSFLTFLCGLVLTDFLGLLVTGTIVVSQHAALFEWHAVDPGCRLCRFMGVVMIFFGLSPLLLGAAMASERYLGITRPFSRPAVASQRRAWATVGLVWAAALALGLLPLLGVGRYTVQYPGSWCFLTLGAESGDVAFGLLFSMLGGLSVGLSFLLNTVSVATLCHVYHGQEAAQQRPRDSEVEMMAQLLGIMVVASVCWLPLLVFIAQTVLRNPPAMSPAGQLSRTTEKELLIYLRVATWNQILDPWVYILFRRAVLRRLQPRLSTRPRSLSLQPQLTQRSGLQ
Nature of the assay: Biochemical assay Thromboxane A2. In kind it is binding. Particulars: Thromboxane A2, Hu; for Ki: value in parentheses.

Chain of Adrenergic β3 (P13945 whole entry): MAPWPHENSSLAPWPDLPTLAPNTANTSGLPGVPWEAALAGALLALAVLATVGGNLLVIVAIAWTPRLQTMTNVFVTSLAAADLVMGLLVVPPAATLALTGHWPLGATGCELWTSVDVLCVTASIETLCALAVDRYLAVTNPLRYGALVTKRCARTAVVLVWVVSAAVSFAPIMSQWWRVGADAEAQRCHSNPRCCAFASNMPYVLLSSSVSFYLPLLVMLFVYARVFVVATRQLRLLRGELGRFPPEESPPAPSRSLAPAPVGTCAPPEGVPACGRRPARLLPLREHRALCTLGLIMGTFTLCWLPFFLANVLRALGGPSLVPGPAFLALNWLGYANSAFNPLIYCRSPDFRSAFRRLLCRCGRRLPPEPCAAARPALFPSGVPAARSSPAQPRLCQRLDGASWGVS
Chain of Adrenergic, NE Transporter (P23975 whole entry): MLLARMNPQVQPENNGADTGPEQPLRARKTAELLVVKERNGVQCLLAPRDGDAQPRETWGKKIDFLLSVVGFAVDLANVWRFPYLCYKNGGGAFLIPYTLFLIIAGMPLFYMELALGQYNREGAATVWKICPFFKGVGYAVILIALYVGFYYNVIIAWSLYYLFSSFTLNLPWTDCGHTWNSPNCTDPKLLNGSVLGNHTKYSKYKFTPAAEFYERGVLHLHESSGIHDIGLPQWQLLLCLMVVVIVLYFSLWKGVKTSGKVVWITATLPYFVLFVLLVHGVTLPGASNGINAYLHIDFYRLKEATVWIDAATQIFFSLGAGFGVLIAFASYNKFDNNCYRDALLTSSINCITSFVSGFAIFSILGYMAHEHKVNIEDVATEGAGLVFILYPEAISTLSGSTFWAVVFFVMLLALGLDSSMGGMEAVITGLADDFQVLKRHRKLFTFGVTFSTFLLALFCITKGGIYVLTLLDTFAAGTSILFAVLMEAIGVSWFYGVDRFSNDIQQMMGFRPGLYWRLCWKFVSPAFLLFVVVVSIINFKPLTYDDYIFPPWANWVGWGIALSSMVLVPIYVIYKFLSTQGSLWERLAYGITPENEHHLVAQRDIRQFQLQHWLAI
Chain of Opiate δ (P41143 whole entry): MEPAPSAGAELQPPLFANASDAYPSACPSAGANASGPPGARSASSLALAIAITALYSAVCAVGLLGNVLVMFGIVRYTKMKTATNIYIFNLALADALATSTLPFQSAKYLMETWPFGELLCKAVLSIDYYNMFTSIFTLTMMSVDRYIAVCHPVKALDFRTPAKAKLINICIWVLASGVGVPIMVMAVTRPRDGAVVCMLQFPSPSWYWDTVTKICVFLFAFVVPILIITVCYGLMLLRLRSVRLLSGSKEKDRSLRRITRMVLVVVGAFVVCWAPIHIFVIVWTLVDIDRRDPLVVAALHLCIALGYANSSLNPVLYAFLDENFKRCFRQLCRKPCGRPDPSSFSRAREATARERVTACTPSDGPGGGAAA
Chain of Melanocortin MC5 (P33032 whole entry): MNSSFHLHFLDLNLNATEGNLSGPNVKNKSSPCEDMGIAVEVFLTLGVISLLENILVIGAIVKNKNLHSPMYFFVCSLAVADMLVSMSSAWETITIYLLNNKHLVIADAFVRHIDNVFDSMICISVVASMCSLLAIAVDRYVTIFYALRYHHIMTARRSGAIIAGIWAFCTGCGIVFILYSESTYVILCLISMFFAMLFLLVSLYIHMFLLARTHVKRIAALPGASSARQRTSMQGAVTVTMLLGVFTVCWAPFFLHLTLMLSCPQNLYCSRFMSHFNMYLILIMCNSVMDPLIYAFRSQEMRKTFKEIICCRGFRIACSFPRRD
Chain of PDE2 (O00408 whole entry): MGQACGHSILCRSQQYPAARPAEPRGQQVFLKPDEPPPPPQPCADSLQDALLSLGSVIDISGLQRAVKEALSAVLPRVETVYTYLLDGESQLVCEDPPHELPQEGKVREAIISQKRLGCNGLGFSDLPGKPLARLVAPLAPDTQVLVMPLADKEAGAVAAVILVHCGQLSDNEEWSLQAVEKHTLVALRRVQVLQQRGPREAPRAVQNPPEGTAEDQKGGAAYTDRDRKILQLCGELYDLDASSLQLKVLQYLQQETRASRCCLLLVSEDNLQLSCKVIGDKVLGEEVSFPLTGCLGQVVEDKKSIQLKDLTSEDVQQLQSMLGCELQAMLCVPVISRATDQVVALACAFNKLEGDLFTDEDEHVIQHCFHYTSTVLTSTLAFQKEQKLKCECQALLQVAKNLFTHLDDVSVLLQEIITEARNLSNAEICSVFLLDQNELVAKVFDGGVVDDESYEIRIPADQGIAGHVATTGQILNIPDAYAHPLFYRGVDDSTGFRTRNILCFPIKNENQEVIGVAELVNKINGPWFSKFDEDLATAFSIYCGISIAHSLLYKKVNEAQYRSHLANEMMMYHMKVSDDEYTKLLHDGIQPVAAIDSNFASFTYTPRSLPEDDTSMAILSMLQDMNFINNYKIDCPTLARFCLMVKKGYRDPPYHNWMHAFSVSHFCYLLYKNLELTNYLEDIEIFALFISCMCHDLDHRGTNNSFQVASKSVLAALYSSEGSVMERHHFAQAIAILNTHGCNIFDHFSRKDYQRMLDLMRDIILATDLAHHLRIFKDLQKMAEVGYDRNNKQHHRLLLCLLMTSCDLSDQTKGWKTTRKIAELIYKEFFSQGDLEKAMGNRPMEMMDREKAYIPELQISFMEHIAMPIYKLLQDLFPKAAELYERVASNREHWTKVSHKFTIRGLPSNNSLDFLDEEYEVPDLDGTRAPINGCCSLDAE

`CCCc1c(SCCCOc2ccc(C(C)=O)c(OCCCC(=O)O)c2CCC)ccc(C(C)=O)c1O` [Compound 1, 4-[6-acetyl-3-[3-(4-acetyl-3-hydroxy-2-propylphenylthio)propoxy]-2-propylphenoxy]butyric acid]: the IC50 is 1110 nM in assay [1]; 741 nM in assay [2]; 3430 nM in assay [3]; 639 nM in assay [4]; 2810 nM in [5]; 4630 nM in assay [6]. For the same compound, the IC50 in [7] came to 3500 nM; in [8], 6360 nM; in assay [9], 2580 nM; in assay [10], 1040 nM; in assay [11], 3370 nM. The Ki in [5] came to 1280 nM; in assay [6], 3470 nM; in assay [7], 3470 nM; in [8], 3180 nM; in assay [9] it was 2420 nM; in assay [10], 365 nM. The Ki in assay [11] came to 2200 nM.
As to `CCCc1c(SCCCOc2ccc(C(C)O)c(OCCCC(=O)O)c2CCC)ccc(C(C)=O)c1O` (stereo not drawn) [Compound 2], the IC50 in [1] amounted to 1610 nM; in [2], 3080 nM; in [3] it was 3380 nM; in assay [4] it was 303 nM; in assay [5], 1600 nM; in assay [6] it was 1100 nM. Also, the IC50 in assay [7] was 2050 nM; in assay [8], 5350 nM; in [9] it was 1820 nM; in assay [10], 3030 nM; in assay [11], 3890 nM. Moreover, the Ki in assay [5] is 732 nM; in assay [6], 821 nM; in assay [7] it was 2030 nM; in assay [8], 2670 nM; in assay [9], 1710 nM; in assay [10] it was 1070 nM. Further, the Ki in assay [11] was found to be 2540 nM.

As a reminder, the IC50 is the midpoint of a concentration-inhibition curve. As usually defined, the Ki is a measure of affinity in units of concentration, obtained from inhibition or displacement.
